Converted amounts (≈) assume the structure as drawn.
What follows are compounds tested on mycolic acid biosynthesis in M. bovis BCG (assay: not given). Settings: not given.
Format: cell-based, Mycobacterium bovis BCG
`COc1ccc(C=CC(=O)c2ccccc2)cc1OC` [Compound 1a, 3-(3,4-Dimethoxyphenyl)-1-phenylprop-2-en-1-one] was tested, and the FAMEs was “accumulation of FAMEs in a dose-dependent manner” and the “production of α- and k-MAMEs” value was “dose-dependent decrease”.

The compounds below were run on J774 cells (assay: MTT assay for cytotoxicity). Settings: Mus musculus, J774, 24 h, read-out: J-774 (IC50).
Format: cell-based
`COc1ccc(C=CC(=O)c2ccc(Cl)cc2)cc1OC` [Compound 1g, 1-(4-Chlorophenyl)-3-(3,4-dimethoxyphenyl)prop-2-en-1-one] showed an IC50 of 12.5 µg/mL (≈ 41.3 µM).
For `COc1ccc(C=CC(=O)c2cccc(Cl)c2)cc1OC` [Compound 1e, 1-(3-Chlorophenyl)-3-(3,4-dimethoxyphenyl)prop-2-en-1-one], the IC50 was 12.5 µg/mL (≈ 41.3 µM).
Work on `COc1ccc(C=CC(=O)c2ccccc2)cc1OC` [Compound 1a, 3-(3,4-Dimethoxyphenyl)-1-phenylprop-2-en-1-one] yielded an IC50 of 50 µg/mL (≈ 186 µM).
`COc1ccc(C=CC(=O)c2ccccc2Cl)cc1OC` [Compound 1f, 1-(2-Chlorophenyl)-3-(3,4-dimethoxyphenyl)prop-2-en-1-one] gave an IC50 of 12.5 µg/mL (≈ 41.3 µM).
Work on `COc1ccc(C=CC(=O)c2ccc(-c3ccccc3)cc2)cc1OC` [Compound 1k, 1-([1,1'-Biphenyl]-4-yl)-3-(3,4-dimethoxyphenyl)prop-2-en-1-one] yielded an IC50 of 25 µg/mL (≈ 72.6 µM).
`COc1ccc(C=CC(=O)c2ccc([N+](=O)[O-])cc2)cc1OC` [Compound 1n, 3-(3,4-Dimethoxyphenyl)-1-(4-nitrophenyl)prop-2-en-1-one] showed an IC50 of 50 µg/mL (≈ 160 µM).
`COc1ccc(C=CC(=O)c2ccc(Br)cc2)cc1OC` [Compound 1d, 1-(4-Bromophenyl)-3-(3,4-dimethoxyphenyl)prop-2-en-1-one] showed an IC50 of 25 µg/mL (≈ 72 µM).
Work on `COc1ccc(C=CC(=O)c2cccc(Br)c2)cc1OC` [Compound 1b, 1-(3-Bromophenyl)-3-(3,4-dimethoxyphenyl)prop-2-en-1-one] yielded an IC50 of 25 µg/mL (≈ 72 µM).
Work on `COc1ccc(C=CC(=O)c2ccccc2Br)cc1OC` [Compound 1c, 1-(2-Bromophenyl)-3-(3,4-dimethoxyphenyl)prop-2-en-1-one] yielded an IC50 of 25 µg/mL (≈ 72 µM).
`COc1ccc(C=CC(=O)c2ccc(C)cc2)cc1OC` [Compound 1j, 3-(3,4-Dimethoxyphenyl)-1-(p-tolyl)prop-2-en-1-one] was tested, and the IC50 was 25 µg/mL (≈ 88.5 µM).
`COc1ccc(C=CC(=O)c2ccccc2C)cc1OC` [Compound 1m, 3-(3,4-Dimethoxyphenyl)-1-(o-tolyl)prop-2-en-1-one] showed an IC50 of 25 µg/mL (≈ 88.5 µM).

What follows are compounds tested on Mycobacterium bovis BCG cells (assay: not given). Settings: not given.
Format: cell-based
In the case of `COc1ccc(C=CC(=O)c2ccccc2)cc1OC` [Compound 1a, 3-(3,4-Dimethoxyphenyl)-1-phenylprop-2-en-1-one], the “proportion of cells showing morphological changes” value was 76%.
